From PubChem BioAssay (NCI)
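The compound was tested at five concentrations on cells cultured in 96-well plates, with a 48-hour exposure period. At the GI50, growth is halved. The concentration for full growth arrest is given as TGI.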

Tests used:
Assay in all cases: growth of human tumour cells (NCI), 48 h
DLD-1 colon = system: DLD-1 colon
DMS 114 small cell lung = system: DMS 114 small cell lung
HCC-2998 colon = system: HCC-2998 colon
KM12 colon = system: KM12 colon
LOX IMVI melanoma = system: LOX IMVI melanoma
SR leukemia = system: SR leukemia
TK-10 renal = system: TK-10 renal
U251 CNS = system: U251 CNS
UO-31 renal = system: UO-31 renal
RXF 393 renal = system: RXF 393 renal

SMILES	TGI (DLD-1 colon) [µM]	TGI (DMS 114 small cell lung) [µM]	TGI (HCC-2998 colon) [µM]	TGI (KM12 colon) [µM]	TGI (LOX IMVI melanoma) [µM]	TGI (SR leukemia) [µM]	TGI (TK-10 renal) [µM]	TGI (U251 CNS) [µM]	TGI (UO-31 renal) [µM]	TGI (RXF 393 renal) [µM]	GI50 (DLD-1 colon) [µM]	GI50 (DMS 114 small cell lung) [µM]	GI50 (HCC-2998 colon) [µM]	GI50 (KM12 colon) [µM]	GI50 (LOX IMVI melanoma) [µM]	GI50 (SR leukemia) [µM]	GI50 (TK-10 renal) [µM]	GI50 (U251 CNS) [µM]	GI50 (UO-31 renal) [µM]
CC1OC(n2cc(I)c(=O)[nH]c2=O)C=CC1=O (stereo not given)	26	31	31.5	25.8	19.6	32.2	32.9	27.6	30.5	–	–	–	–	–	–	–	–	–	–
N#CC(C#N)=Cc1ccc(Oc2ccccc2)cc1	20.6	84	> 100	> 100	30.8	> 100	> 100	> 57	> 71.4	> 100	–	–	–	–	–	–	–	–	–
O=[N+]([O-])c1cc([N+](=O)[O-])c(C(Cl)C(Cl)c2ccccc2)cc1C(Cl)C(Cl)c1ccccc1 (stereo not given)	3.27	3.34	3.33	3.76	3.57	> 100	4.23	3.26	2.93	2.73	–	–	–	–	–	–	–	–	–
COC(=O)C(C(=O)C(=O)Nc1ccc([N+](=O)[O-])cc1)c1nc2cc(C)c(C)cc2[nH]c1=O (stereo not given)	> 100	> 100	> 100	> 100	> 100	> 100	> 100	> 100	> 100	> 100	–	–	–	–	–	–	–	–	–
COC(=O)C1=C(C)N(NC(=O)c2cccc(Cl)c2)C(C)(O)C12CCOC2=O (stereo not given)	–	> 100	> 100	> 100	> 100	> 100	–	> 100	> 100	–	–	–	–	–	–	–	–	–	–
C/C=C/C=C\C(=O)C1c2cccc(O)c2C(=O)c2c(O)cc(C)cc21 (stereo not given)	3.67	1.39	1.6	1.51	3.38	–	3.76	1.63	3.08	2.81	–	–	–	–	–	–	–	–	–
C[CH2][Sn]([Cl])([CH2]C)[CH2]C	15.8	4.7	1.66	12.8	2.06	5.01	6.94	2.97	4.05	–	0.973	0.968	0.354	1.08	0.386	0.481	3.02	0.771	1.65
CC(C)N(C(=O)C12C3C4C5C3C1(C#N)C5C42)C(C)C (stereo not given)	> 100	> 100	> 100	> 100	> 100	> 100	> 100	> 100	> 100	–	–	–	–	–	–	–	–	–	–
Cc1ccc(S(=O)(=O)NC(=O)C#CCOC2CCCCO2)cc1 (stereo not given)	> 100	> 100	> 100	–	> 100	> 100	> 100	> 100	> 100	> 100	–	–	–	–	–	–	–	–	–
CCOC(=O)/C(=C/c1ccc(Cl)cc1)N(CC)CC	> 100	–	> 100	> 100	> 100	> 100	> 100	> 100	> 100	–	–	–	–	–	–	–	–	–	–
O=c1nc(-c2ccccc2)scc1-c1ccccc1	> 100	> 100	–	> 100	–	> 100	> 100	> 100	> 100	> 100	–	–	–	–	–	–	–	–	–
COc1cccc(N2C(=O)[C@H]3[C@H]4CC(C(C)(C)C)CC[C@H]4c4c([nH]c5ccccc45)[C@H]3C2=O)c1 (stereo not given in full)	65.1	38	> 100	> 100	32.7	–	28.8	–	35.5	42	–	–	–	–	–	–	–	–	–
CO[C@]12CCC(=O)N1C=Cc1c2[nH]c2ccccc12	> 100	> 100	> 100	–	> 100	> 100	> 100	–	> 100	> 100	–	–	–	–	–	–	–	–	–
CN1CCc2cc(O)c3cc2C1Cc1ccc(cc1)Oc1cc(ccc1O)CC1c2c(cc4c(c2O3)OCO4)CCN1C (stereo not given)	> 100	39.4	41.7	> 100	–	> 100	92.2	> 100	9.46	60.2	–	–	–	–	–	–	–	–	–
CC(=O)OCc1c(C)c2ccccc2n1C(C)=O	–	47	> 100	> 100	> 100	76.1	> 100	> 100	> 100	75.3	–	–	–	–	–	–	–	–	–
O=C(NCCCCCCNC(=O)NC1OCC(O)C(O)C1O)NC1OCC(O)C(O)C1O (stereo not given)	> 100	> 100	–	> 100	> 100	> 100	> 100	> 100	–	> 100	–	–	–	–	–	–	–	–	–
CSC1CC2C(CC1(C)SC)C2(C)C (stereo not given)	> 100	–	> 100	> 100	> 100	> 100	> 100	> 100	> 100	> 100	–	–	–	–	–	–	–	–	–
CC1=C2[C@@H](c3ccccc3)C3C=CC2(c2ccccc23)N(C(=O)Nc2cccc3ccccc23)C1=O (stereo not given in full)	–	> 100	> 100	> 100	> 100	> 100	–	> 100	> 100	–	–	–	–	–	–	–	–	–	–
